Source: PMC7863721, “Plasticity of Carbohydrate Transport at the Blood-Brain Barrier” (Frontiers in Behavioral Neuroscience, 2021)

How the values were obtained:
[1] = target: T1, MFS3 (Major Facilitator Superfamily Transporter 3); MFS3-3xHA (Drosophila melanogaster, UniProt Q9VPX2); assay: […]-sugar uptake into cRNA-injected Xenopus oocytes, net flux over native oocytes; format: cell-based; details: labelled compound; pH 7.2, 60 min; concentration series; no reliable Km or Vmax obtained
T1 construct: b38 prints CG4762, apparently a misprint of CG4726
T1 sequence (Q9VPX2 1-512): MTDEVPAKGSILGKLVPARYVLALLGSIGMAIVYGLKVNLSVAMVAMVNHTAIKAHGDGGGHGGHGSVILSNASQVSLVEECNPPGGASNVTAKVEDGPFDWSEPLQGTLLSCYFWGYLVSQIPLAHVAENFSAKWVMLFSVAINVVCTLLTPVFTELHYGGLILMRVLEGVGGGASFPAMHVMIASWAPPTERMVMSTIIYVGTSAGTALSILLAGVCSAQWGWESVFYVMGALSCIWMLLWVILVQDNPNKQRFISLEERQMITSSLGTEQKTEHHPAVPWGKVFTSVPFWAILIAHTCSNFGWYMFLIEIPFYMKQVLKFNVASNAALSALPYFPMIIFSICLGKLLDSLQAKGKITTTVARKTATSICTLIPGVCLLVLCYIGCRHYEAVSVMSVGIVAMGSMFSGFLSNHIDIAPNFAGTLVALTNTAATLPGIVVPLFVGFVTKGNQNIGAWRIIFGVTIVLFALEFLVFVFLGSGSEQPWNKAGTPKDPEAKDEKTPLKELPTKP

[2] = target: T2, Pippin (CG4797); Pippin-3xHA (Drosophila melanogaster, UniProt Q8MLQ7); assay: as above; format: cell-based; details: labelled compound; pH 7.2, 60 min; concentration series; no reliable Km or Vmax obtained
T2 sequence (Q8MLQ7 1-533): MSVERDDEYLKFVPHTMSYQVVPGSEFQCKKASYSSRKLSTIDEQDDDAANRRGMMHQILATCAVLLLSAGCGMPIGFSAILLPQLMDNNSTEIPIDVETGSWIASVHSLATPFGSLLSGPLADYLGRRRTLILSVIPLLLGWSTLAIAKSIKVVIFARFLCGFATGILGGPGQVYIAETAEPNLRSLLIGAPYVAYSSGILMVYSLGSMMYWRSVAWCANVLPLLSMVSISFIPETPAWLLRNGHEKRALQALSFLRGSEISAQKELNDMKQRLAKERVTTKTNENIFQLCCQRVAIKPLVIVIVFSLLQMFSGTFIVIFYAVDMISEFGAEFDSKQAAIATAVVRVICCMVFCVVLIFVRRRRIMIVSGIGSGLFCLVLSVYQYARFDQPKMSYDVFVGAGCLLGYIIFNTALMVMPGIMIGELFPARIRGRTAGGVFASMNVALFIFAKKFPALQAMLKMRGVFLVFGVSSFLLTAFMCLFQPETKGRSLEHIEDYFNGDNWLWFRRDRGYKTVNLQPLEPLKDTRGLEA

| SMILES | 14C-sugar uptake into cRNA-injected Xenopus oocytes, net flux over native oocyte [1] | 14C-sugar uptake into cRNA-injected Xenopus oocytes, net flux over native oocyte [2] |
| --- | --- | --- |
| OC[C@H]1OC(O)[C@H](O)[C@@H](O)[C@@H]1O (stereo partly shown) [glucose] | both Pippin and MFS3 facilitate uptake of glucose and trehalose efficiently | both Pippin and MFS3 facilitate uptake of glucose and trehalose efficiently |
| OC[C@H]1O[C@H](O[C@H]2O[C@H](CO)[C@@H](O)[C@H](O)[C@H]2O)[C@H](O)[C@@H](O)[C@@H]1O [trehalose] | both Pippin and MFS3 facilitate uptake of glucose and trehalose efficiently | both Pippin and MFS3 facilitate uptake of glucose and trehalose efficiently |
